Assay type in all cases: functional
The subject of test [1] is Staphylococcus aureus. Put plainly: In vitro antibacterial activity against Staphylococcus aureus A20700 was determined.
The subject of test [2] is Staphylococcus epidermidis. The test is described as follows: In vitro antibacterial activity against Staphylococcus epidermidis A25441 was determined.
Test [3] has as its system Staphylococcus aureus. The test is described as follows: In vitro antibacterial activity against Staphylococcus aureus A9537 was determined.

Each structure is given as a SMILES string. ≈ marks a conversion by molar mass, not a printed value.

This passage reports MIC results from ChEMBL document CHEMBL1127925, “Synthesis and in vitro antibacterial activity of new semi-synthetic noviosylcoumarin antibiotics: chemical modification at the C-3 ester” (1994).

For the compound `COC1C(OC(=O)c2cccn2C)C(O)C(Oc2ccc3c(O)c(NC(=O)c4ccccc4)c(=O)oc3c2C)OC1(C)C` (stereo not drawn), the MIC (in general, the least concentration at which growth counts as inhibited) with Staphylococcus aureus [1] is 8 µg/mL (≈ 13.5 µM); in test [2] it was 8 µg/mL (≈ 13.5 µM); in the test with Staphylococcus aureus [3], 2 µg/mL (≈ 3.37 µM).

Regarding `COC1C(OC(=O)c2c(C)ncn2Cc2ccccc2)C(O)C(Oc2ccc3c(O)c(NC(=O)c4ccccc4)c(=O)oc3c2C)OC1(C)C` (stereo not drawn), the figures for the MIC (with Staphylococcus aureus [1]; in test [2]; with Staphylococcus aureus [3]) were 4 µg/mL (≈ 5.85 µM), 2 µg/mL (≈ 2.93 µM) and 8 µg/mL (≈ 11.7 µM), respectively.

For `COC1C(OC(=O)c2ccco2)C(O)C(Oc2ccc3c(O)c(NC(=O)c4ccccc4)c(=O)oc3c2C)OC1(C)C` (stereo not drawn), the MIC (with Staphylococcus aureus [1]; in test [2]; against Staphylococcus aureus [3]) was 8 µg/mL (≈ 13.8 µM) each time.

For `COC1C(OC(=O)c2ccc(C)[nH]2)C(O)C(Oc2ccc3c(O)c(NC(=O)c4ccccc4)c(=O)oc3c2C)OC1(C)C` (stereo not drawn), the MIC (against Staphylococcus aureus [1]; in test [2]; against Staphylococcus aureus [3]) was 0.13 µg/mL (≈ 0.219 µM) each time.

For the compound `COC1C(OC(=O)c2[nH]cnc2C)C(O)C(Oc2ccc3c(O)c(NC(=O)c4ccccc4)c(=O)oc3c2C)OC1(C)C.Cc1ccc(S(=O)(=O)O)cc1` (stereo not drawn), the MIC in the test with Staphylococcus aureus [1] came out at 16 µg/mL; in test [2], 8 µg/mL; in the test on Staphylococcus aureus [3], 16 µg/mL.

`COC1C(OC(=O)c2ccc(C)s2)C(O)C(Oc2ccc3c(O)c(NC(=O)c4ccccc4)c(=O)oc3c2C)OC1(C)C` (stereo not drawn): the results for the MIC (in the test on Staphylococcus aureus [1]; in test [2]; in the test with Staphylococcus aureus [3]) were 4 µg/mL (≈ 6.56 µM), 8 µg/mL (≈ 13.1 µM) and 0.03 µg/mL (≈ 0.0492 µM), respectively.
